Measured values as given in US20220364181A1, “METHOD AND A KIT FOR PREDICTING THE SUSCEPTIBILITY TO STIMULATOR OF INTERFERON GENES (STING) AGONISTS IN A CANCER PATIENT” (China Medical University, priority 2021, published 2022).

Experiments:
MC38 cell line = experiment: In vitro assay for susceptibility to STING agonists, ELISA of interferon β, MC38; assay type: cell-based, mouse; details: 100 μg/mL STING agonist, 24 hours
Description: (§1) Two cancer cell lines, the mouse mammary carcinoma cell line EMT6 and the mouse colon adenocarcinoma cell line MC38, were used in the present invention as the models of cell assays.
(§2) These two cancer cell lines were divided into two groups, one group was treated with cell culture medium, and named as MTAP (+); the other group was treated with siRNA of the S-methyl-5′-thioadenosine phosphorylase (MTAP) for gene knock-out, and named as MTAP(−).
In the present invention, two cancer cell lines (EMT6 cell line and MC38 cell line) of MTAP (+) and MTAP (−) were stimulated with STING agonists, and then the expression level of Type I Interferon was measured to determine the activity of the STING agonists.
The STING agonists used in the present invention included MIW815 and E7766, and two cells were divided into six groups, respectively, the MTAP(+) Control Group, the MTAP(−) Control Group, MTAP(+) MIW815 Group, MTAP(+) E7766 Group, MTAP(−) MIW815 Group and MTAP(−) E7766 Group.
In this assay, after culturing the EMT6 cell line and the MC38 cell line for 12 hours, the medium of the cells in the MTAP(+) STING Group and the MTAP(−) STING Group were replaced with a medium containing 100 μg/mL of STING agonists, and then subjected to stimulation for 24 hours.
(§3) The cells were harvested, and a portion of the cells was used for enzyme-linked immunosorbent assay (ELISA) to detect the expression level of interferon β (IFN β); the other portion was used for extraction of mRNA with TRizol, and then real-time quantitative reverse transcription polymerase chain reaction (RT-qPCR) was used to amplify its DNA fragments for detecting the gene expression levels of the interferon beta gene (IFNb1) and interferon-stimulated genes MX1 and ISG15.

EMT6 cell line = experiment: In vitro assay for susceptibility to STING agonists, ELISA of interferon β, EMT6; assay type: cell-based, mouse; details: EMT6 MTAP(−) cells compared with MTAP(+) cells, 100 μg/mL STING agonist, 24 hours
Description: as §1, §2
In the present invention, two cancer cell lines (EMT6 cell line and MC38 cell line) of MTAP (+) and MTAP (−) were stimulated with STING agonists, and then the expression level of Type I Interferon was measured to determine the activity of the STING agonists. […]
as §3

EMT6 cell lines = experiment: Animal experiment, tumor size of mice inoculated with EMT6 cell lines; assay type: in vivo
Description: In the present invention, the EMT6 cell lines with expressed MTAP (MTAP(+) Group) and the EMT6 cell lines with no expressed MTAP (MTAP(−) Group) were inoculated into mice for in vivo assays of the activity of STING agonists.
In this experiment, MIW815 was selected as the STING agonist, and the mice were divided into 4 groups, 5 mice in each group, namely the MTAP(+) Control Group, the MTAP(−) Control Group, the MTAP(+) MIW815 Group and the MTAP(−) MIW815 Group.
Drugs were administered after the cancer cells grew to be more than 100 mm^3. Phosphate buffered saline solution (PBS) was given to the MTAP(+) Control Group and the MTAP(−) Control Group; and 50 μg of STING agonist MIW815 was given to the MTAP(+) MIW815 Group and the MTAP(−) MIW815 Group at Day 9, 12 and 16.

[1] = MC38 MTAP(−) cells compared with MTAP(+) cells

SMILES | expression of interferon β (IFN β), ELISA (MC38 cell line; MC38 MTAP(+) cells) | expression of interferon β (IFN β), ELISA (MC38 cell line; [1]) | expression of interferon β (IFN β), ELISA (EMT6 cell line) | tumor size (EMT6 cell lines; EMT6 MTAP(+) tumors, 50 μg at Day 9, 12 and 16, compared with MTAP(+) Control Group (PBS)) | tumor size (EMT6 cell lines; EMT6 MTAP(−) tumors, 50 μg at Day 9, 12 and 16, compared with MTAP(−) Control Group (PBS))
O=[P@]1(S)OC[C@H]2O[C@@H]3[C@H](F)[C@@H]2O[P@](=O)(S)OC[C@H]2O[C@H]([C@H](F)[C@@H]2O1)n1cnc2c(ncnc21)NC/C=C/CNc1ncnc2c1ncn23 [E7766] | effectively stimulated the expression of IFN 13 | significantly lower | significantly lower | – | –
Nc1ncnc2c1ncn2[C@@H]1O[C@@H]2COP(=O)([S-])O[C@@H]3[C@H](O)[C@@H](COP([O-])(=S)O[C@H]2[C@H]1O)O[C@H]3n1cnc2c(N)ncnc21.[Na+].[Na+] (some centres unmarked) [MIW815] | effectively stimulated the expression of IFN 13 | significantly lower | significantly lower | significantly smaller | not statistically different
